From US8436189B2, “Heterocyclic alkanol derivatives” (Bayer Intellectual Property GmbH, priority 2010, dated 2013)

Tests used:
[1] = log P by HPLC on reversed-phase columns (C18), EEC Directive 79/831 Annex V.A8; format: physicochemical; details: method [a]: LC-MS, acidic range, pH 2.7, 0.1% aqueous formic acid / acetonitrile, gradient 10% to 95% acetonitrile
Experimental: The log P values were measured in accordance with EEC Directive 79/831 Annex V.A8 by HPLC (High Performance Liquid Chromatography) using reversed-phase columns (C18) by the following methods: [a] The LC-MS determination in the acidic range is effected at pH 2.7 with 0.1% aqueous formic acid and acetonitrile (contains 0.1% formic acid) as eluents; linear gradient from 10% acetonitrile to 95% acetonitrile.

[2] = test system: Blumeria graminis f sp. hordei; experiment: Blumeria graminis test (barley)/protective; format: in vivo; details: protective spray, application rate 500 ppm, evaluation 7 days after inoculation, 0% = control, 100% = no infection
Experimental: Solvent: 49 parts by weight of N,N-dimethylacetamide Emulsifier: 1 part by weight of alkylaryl polyglycol ether To produce an appropriate active ingredient formulation, 1 part by weight of active ingredient is mixed with the specified amounts of solvent and emulsifier, and the concentrate is diluted with water to the desired concentration. To test for protective activity, young plants are sprayed with the formulation of active ingredient at the stated application rate. After the spray coating has dried on, the plants are dusted with spores of Blumeria graminis f sp. hordei. The plants are placed in a greenhouse at a temperature of about 18° C. and a relative air humidity of about 80% to promote the development of mildew pustules. Evaluation follows 7 days after the inoculation. 0% means an efficacy which corresponds to that of the control, whereas an efficacy of 100% means that no infection is observed. In this test, the following inventive compounds, at an active ingredient concentration of 500 ppm, show an efficacy of 70% or more.

Leptosphaeria nodorum = Leptosphaeria nodorum test (wheat)/protective; format: in vivo; details: protective spray, application rate 500 ppm, evaluation 8 days after inoculation, 0% = control, 100% = no infection
Experimental: (§1) Solvent: 49 parts by weight of N,N-dimethylacetamide
(§2) Emulsifier: 1 part by weight of alkylaryl polyglycol ether
(§3) To produce an appropriate active ingredient formulation, 1 part by weight of active ingredient is mixed with the specified amounts of solvent and emulsifier, and the concentrate is diluted with water to the desired concentration. To test for protective activity, young plants are sprayed with the formulation of active ingredient at the stated application rate. After the spray coating has dried on, the plants are sprayed with spores with a spore suspension of Leptosphaeria nodorum. The plants remain in an incubation cabin at 20° C. and 100% relative air humidity for 48 hours. The plants are placed in a greenhouse at a temperature of about 22° C. and a relative air humidity of about 80%. Evaluation follows 8 days after the inoculation. 0% means an efficacy which corresponds to that of the control, whereas an efficacy of 100% means that no infection is observed. In this test, the following inventive compounds, at an active ingredient concentration of 500 ppm, show an efficacy of 70% or more.

Puccinia triticina = Puccinia triticina test (wheat)/protective; format: in vivo; details: protective spray, application rate 500 ppm, evaluation 8 days after inoculation, 0% = control, 100% = no infection
Experimental: as §1, §2
as §3, with “Puccinia triticina.” for “Leptosphaeria nodorum.”, “20°” for “22°”

Uromyces appendiculatus = experiment: Uromyces test (bean)/protective; format: in vivo; details: protective spray, application rate 100 ppm, evaluation 10 days after inoculation, 0% = control, 100% = no infection
Experimental: (§4) Solvent: 24.5 parts by weight of acetone • 24.5 parts by weight of dimethylacetamide Emulsifier: 1 part by weight of alkylaryl polyglycol ether To produce an appropriate active ingredient formulation, 1 part by weight of active ingredient is mixed with the specified amounts of solvent and emulsifier, and the concentrate is diluted with water to the desired concentration. To test for protective activity, young plants are sprayed with the active ingredient formulation at the stated application rate. After the spray coating has dried on, the plants are inoculated with an aqueous spore suspension of the bean rust pathogen Uromyces appendiculatus and then remain in an incubation cabin at about 20° C. and 100% relative air humidity for 1 day. The plants are then placed in the greenhouse at about 21° C. and a relative air humidity of about 90%. Evaluation follows 10 days after the inoculation. 0% means an efficacy which corresponds to that of the control, whereas an efficacy of 100% means that no infection is observed. In this test, the following inventive compounds, at an active ingredient concentration of 100 ppm, show an efficacy of 70% or more.

Venturia inaequalis = experiment: Venturia test (apple)/protective; format: in vivo; details: protective spray, application rate 100 ppm, evaluation 10 days after inoculation, 0% = control, 100% = no infection
Experimental: as §4, with “aqueous conidia” for “aqueous spore”, “the apple scab” for “the bean rust”, “pathogen Venturia inaequalis” for “pathogen Uromyces appendiculatus”, “in a” for “in the”

Q: For `CC(C)(C)C(O)(COc1ccc(OC(F)(F)F)c(Cl)c1)c1cncs1` (stereo not drawn) [compound 24], which logP [1] is on record?
A: logP 4.02^[a]; [M + H]^+ = 396.

Q: For `CC1(C(O)(COc2ccc(I)c([N+](=O)[O-])c2)c2cncs2)CC1` (stereo not drawn) [compound 15], which logP [1] is on record?
A: logP 3.11^[a]; [M + H]^+ = 447

Q: With `CC(C)(C)C(O)(COc1ccc(Br)cc1Cl)c1cncs1` (stereo not drawn) [Compound No. 2] as the compound, how does the “Efficacy (%)” value [2] read?
A: 100%

Q: What about the “Efficacy (%)” value (Leptosphaeria nodorum) of the same compound?
A: 92%

Q: And the “Efficacy (%)” value (Puccinia triticina)?
A: 95%

Q: With `CC1(C(O)(COc2ccc(Br)c(F)c2)c2cncs2)CC1` (stereo not drawn) [compound 12] as the compound, how does the logP [1] read?
A: logP 3.30^[a]; [M + H]^+ = 372, 374

Q: For `Cc1cc(OCC(O)(c2cncs2)C(C)(C)C)ccc1SC(F)(F)F` (stereo not drawn) [compound 22], which logP [1] is on record?
A: logP 4.35^[a]; [M + H]^+ = 392.

Q: With `Cc1cc(SC(F)(F)F)ccc1OCC(O)(c1cncs1)C(C)(C)C` (stereo not drawn) [compound 23] as the compound, how does the logP [1] read?
A: logP 4.43^[a]; [M + H]^+ = 392.

Q: With `CC1(C(O)(COc2ccc(Br)c(C(F)(F)F)c2)c2cncs2)CC1` (stereo not drawn) [compound 13] as the compound, how does the logP [1] read?
A: logP 3.70^[a]; [M + H]^+ = 422, 424

Q: For `CC(C)(C)C(O)(COc1ccc(Cl)c(Cl)c1)c1cncs1` (stereo not drawn) [compound 39], which logP [1] is on record?
A: logP 3.72^[a]

Q: Which logP [1] does the source give for `Cc1cc(OCC(O)(c2cncs2)C(C)(C)C)ccc1Cl` (stereo not drawn) [compound 27] here?
A: logP 3.74^[a]; [M + H]^+ = 326.

Q: With `CC(C)(C)C(O)(COc1ccc(OC(F)(F)F)cc1Cl)c1cncs1` (stereo not drawn) [compound 29] as the compound, how does the logP [1] read?
A: logP 4.10^[a]; [M + H]^+ = 396.

Q: What does the source list for `CC(C)(C)C(O)(COc1ccc(Br)cc1F)c1cncs1` (stereo not drawn) [Compound No. 3]?
A: Efficacy (%) [2]: 100%; Efficacy (%) (Leptosphaeria nodorum): 100%; Efficacy (%) (Puccinia triticina): 100%

Q: With `COc1cc(OC(F)(F)F)ccc1OCC(O)(c1cncs1)C(C)(C)C` (stereo not drawn) [compound 14] as the compound, how does the logP [1] read?
A: logP 3.70^[a]; [M + H]^+ = 392.

Q: Which logP [1] does the source give for `COc1cc(Br)ccc1OCC(O)(c1cncs1)C1(C)CC1` (stereo not drawn) [compound 35] here?
A: logP 3.26^[a]

Q: Which logP [1] does the source give for `CC(C)(C)C(O)(COc1ccc(F)cc1F)c1cncs1` (stereo not drawn) [compound 34] here?
A: logP 2.98^[a]

Q: Which logP [1] does the source give for `Cc1cc(OCC(O)(c2cncs2)C(C)(C)C)ccc1S(C)(=O)=O` (stereo not drawn) [compound 17] here?
A: logP 2.21^[a]; [M + H]^+ = 370.

Q: For `CC(C)(C)C(O)(COc1ccc(Cl)cc1F)c1cncs1` (stereo not drawn) [compound 26], which logP [1] is on record?
A: logP 3.37^[a]; [M + H]^+ = 330.

Q: With `CC(C)(C)C(O)(COc1ccc(Cl)cc1C(F)(F)F)c1cncs1` (stereo not drawn) [compound 37] as the compound, how does the logP [1] read?
A: logP 3.96^[a]

Q: With `CC1(C(O)(COc2cc(Br)cc(Br)c2)c2cncs2)CC1` (stereo not drawn) [compound 7] as the compound, how does the logP [1] read?
A: logP 4.03^[a]; [M + H]^+ = 434

Q: Which logP [1] does the source give for `COc1cc(OCC(O)(c2cncs2)C2(C)CC2)ccc1Br` (stereo not drawn) [compound 36] here?
A: logP 3.16^[a]

Q: For `Cc1cc(OCC(O)(c2cncs2)C(C)(C)C)ccc1[S+](C)[O-]` (stereo not drawn) [compound 18], which logP [1] is on record?
A: logP 1.90^[a]; [M + H]^+ = 354.

Q: For `CC(C)(C)C(O)(COc1ccc(I)cc1F)c1cncs1` (stereo not drawn) [compound 1], which “Efficacy (%)” value [2] is on record?
A: 100%

Q: And the “Efficacy (%)” value (Leptosphaeria nodorum)?
A: 100%

Q: What about the “Efficacy (%)” value (Puccinia triticina) of the same compound?
A: 100%

Q: And the “Efficacy (%)” value (Uromyces appendiculatus)?
A: 100%

Q: And the “Efficacy (%)” value (Venturia inaequalis)?
A: 97%

Q: With `CC(C)(C)C(O)(COc1ccc(Cl)cc1Cl)c1cncs1` (stereo not drawn) [compound 33] as the compound, how does the logP [1] read?
A: logP 3.84^[a]

Q: Which logP [1] does the source give for `Cc1cc(S(=O)(=O)C(F)(F)F)ccc1OCC(O)(c1cncs1)C(C)(C)C` (stereo not drawn) [compound 19] here?
A: logP 3.63^[a]; [M + H]^+ = 424.

Q: With `Cc1cc(OC(F)(F)F)ccc1OCC(O)(c1cncs1)C(C)(C)C` (stereo not drawn) [compound 42] as the compound, how does the logP [1] read?
A: logP 4.12^[a]

Q: Which logP [1] does the source give for `Cc1cc(I)ccc1OCC(O)(c1cncs1)C1(C)CC1` (stereo not drawn) [compound 10] here?
A: logP 3.88^[a]; [M + H]^+ = 416

Q: With `Cc1cc(Cl)ccc1OCC(O)(c1cncs1)C(C)(C)C` (stereo not drawn) [compound 25] as the compound, how does the logP [1] read?
A: logP 3.77^[a]; [M + H]^+ = 326.

Q: Which logP [1] does the source give for `CSc1ccc(OCC(O)(c2cncs2)C(C)(C)C)cc1C` (stereo not drawn) [compound 28] here?
A: logP 3.63^[a]; [M + H]^+ = 338.

Q: For `CC(C)(C)C(O)(COc1ccc(SC(F)(F)F)c(Cl)c1)c1cncs1` (stereo not drawn) [compound 21], which logP [1] is on record?
A: logP 4.31^[a]; [M + H]^+ = 412.

Q: Which chromatographic logP ([1]; reversed-phase HPLC column (C18)) does the source give for `CC(C)(C)C(O)(Cc1ccc(F)cc1F)c1cncs1` (stereo not drawn) [Compound No. 31] here?
A: 3.04

Q: Which logP [1] does the source give for `CC1(C(O)(COc2ccc(Br)cc2F)c2cncs2)CC1` (stereo not drawn) [compound 32] here?
A: logP 3.32^[a]; [M + H]+ = 372, 374

Q: For `CC(C)(C)C(O)(COc1ccc(OC(F)(F)F)c(Br)c1)c1cncs1` (stereo not drawn) [compound 41], which logP [1] is on record?
A: logP 4.12^[a]

Q: With `COc1cc(S(=O)(=O)C(F)(F)F)ccc1OCC(O)(c1cncs1)C(C)(C)C` (stereo not drawn) [compound 20] as the compound, how does the logP [1] read?
A: logP 3.37^[a]; [M + H]^+ = 440.

Q: For `CC(C)(C)C(O)(COc1ccc(SC(F)(F)F)c(F)c1)c1cncs1` (stereo not drawn) [compound 16], which logP [1] is on record?
A: logP 3.96^[a]; [M + H]^+ = 396.

Q: For `CC(C)(C)C(O)(COc1ccc(I)cc1Cl)c1cncs1` (stereo not drawn) [compound 5], which logP [1] is on record?
A: logP 4.14^[a]; [M + H]^+ = 438.
